{
  "source": "patent US12419305B2",
  "about": "“Antimicrobial compositions” (Firmenich SA, priority 2018, dated 2025)",
  "key": {"[1]": {"test_system": "C. xerosis ATCC 373", "assay": "BCT test (bacterial contact time), 120 s, log reduction / effect fraction; CI by Compusyn", "format": "cell-based", "conditions": "Corynebacterium xerosis, ATCC373, 2 min, contact 120 s, 25% EtOH; for log reduction at 0.1 % strength: dose 0.1% w/v", "in_short": "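C. xerosis cells grown in BHI-TW80 at 37 °C to OD600 1.6 were exposed to ethanolic perfume compositions for 120 s. Viable counts (log CFU) came from serial dilution and OD600 growth after 37 °C incubation, giving log reduction versus ethanol control. CI was computed from concentrations and effect fractions, with <0.9 taken as synergy.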"}, "[2]": {"test_system": "E. coli ATCC 10536", "assay": "BCT test (bacterial contact time), 45 s, log reduction / effect fraction; CI by Compusyn", "format": "cell-based, Escherichia coli", "conditions": "Escherichia coli, ATCC10536, 45 s", "in_short": "(§1)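 Perfume ingredients, alone or combined, in ethanol were mixed 1:1 with ~1×10^8 CFU/mL log-phase bacteria in TSB for the stated contact time. Survivors were estimated by serial dilution and OD600 growth at 37 °C; log reduction versus ethanol control. CI from effect fractions via Compusyn (<0.9 synergy, >1.0 antagonism).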"}, "[3]": {"test_system": "S. aureus ATCC 6538", "assay": "BCT test (bacterial contact time), 60 s, log reduction / effect fraction; CI by Compusyn", "format": "cell-based, Staphylococcus aureus", "conditions": "Staphylococcus aureus, ATCC6538, 1 min, 60 s, in 25% EtOH; for log reduction at 0.1 % strength: dose 0.100 % w/v; for log reduction at 0.125 % strength: dose 0.125 % w/v; for log reduction at 0.15 % strength: dose 0.150 % w/v", "in_short": "as §1"}, "[4]": {"test_system": "Pseudomonas aeruginosa ATCC 15442", "assay": "BCT test (bacterial contact time), 60 s, log reduction / effect fraction; CI by Compusyn", "format": "cell-based", "conditions": "Pseudomonas aeruginosa, ATCC15442, 1 min, BCT 60 s, in 25% EtOH; for log reduction at 0.05 % strength: Dose 0.05 % w/v", "in_short": "as §1"}, "[5]": {"test_system": "Salmonella enterica ATCC 10708", "assay": "BCT test (bacterial contact time), 60 s, log reduction / effect fraction; CI by Compusyn", "format": "cell-based", "conditions": "Salmonella enterica, ATCC10708, 1 min, BCT 60 s, in 25% EtOH; for log reduction at 0.03 % strength: Dose 0.03 % w/v; for log reduction at 0.04 % strength: Dose 0.04 % w/v; for log reduction at 0.05 % strength: Dose 0.05 % w/v; for log reduction at 0.05 % strength / log reduction at 0.1 % strength: read-out: Log reduction", "in_short": "as §1"}, "[6]": {"conditions": "dose 0.050 % w/v, 45 s, in 20% EtOH"}, "[7]": {"conditions": "dose 0.060 % w/v, 45 s, in 20% EtOH"}, "[8]": {"conditions": "dose 0.070 % w/v, 45 s, in 20% EtOH"}, "[9]": {"conditions": "dose 0.080 % w/v, 45 s, in 20% EtOH"}},
  "note": "Like-named read-outs stand apart in the source and are kept apart here.",
  "data": [
    {"smiles": "CC(C)=CCC/C(C)=C/CO", "note": "[Geraniol Pur]", "values": [
      {"measurement": "log reduction at 0.1 % strength", "setting": "[1]", "value": 0.9},
      {"measurement": "log reduction at 0.125 % strength", "setting": "[1]; dose 0.125% w/v", "value": 3.6},
      {"measurement": "log reduction at 0.15 % strength", "setting": "[1]; dose 0.15% w/v", "value": 4.8},
      {"measurement": "log reduction at 0.175 % strength", "setting": "[1]; dose 0.175% w/v", "value": 6.8},
      {"measurement": "log reduction at 0.2 % strength", "setting": "[1]; dose 0.2% w/v, read-out: Log reduction", "value": 7},
      {"measurement": "log reduction at 0.04 % strength", "setting": "[2]; dose 0.040 % w/v, 45 s, in 20% EtOH", "value": 0.4},
      {"measurement": "log reduction at 0.05 % strength", "setting": "[2]; [6]", "value": 1.9},
      {"measurement": "log reduction at 0.06 % strength", "setting": "[2]; [7]", "value": 6.4},
      {"measurement": "log reduction at 0.07 % strength", "setting": "[2]; [8]", "value": 7.4},
      {"measurement": "log reduction at 0.08 % strength", "setting": "[2]; [9]", "value": 7.4},
      {"measurement": "log reduction at 0.05 % strength", "setting": "[3]; dose 0.050 % w/v", "value": 0.2},
      {"measurement": "log reduction at 0.06 % strength", "setting": "[3]; dose 0.060 % w/v", "value": 0.4},
      {"measurement": "log reduction at 0.07 % strength", "setting": "[3]; dose 0.070 % w/v", "value": 1.5},
      {"measurement": "log reduction at 0.08 % strength", "setting": "[3]; dose 0.080 % w/v", "value": 4},
      {"measurement": "log reduction at 0.1 % strength", "setting": "[3]", "value": 7.3},
      {"measurement": "log reduction at 0.03 % strength", "setting": "[4]; Dose 0.03 % w/v", "value": 0.2},
      {"measurement": "log reduction at 0.04 % strength", "setting": "[4]; Dose 0.040 % w/v", "value": 1.4},
      {"measurement": "log reduction at 0.05 % strength", "setting": "[4]", "value": 3.9},
      {"measurement": "log reduction at 0.06 % strength", "setting": "[4]; Dose 0.06 % w/v", "value": 5.9},
      {"measurement": "log reduction at 0.08 % strength", "setting": "[4]; Dose 0.08 % w/v", "value": 7.5},
      {"measurement": "log reduction at 0.025 % strength", "setting": "[5]; Dose 0.025 % w/v", "value": 0.2},
      {"measurement": "log reduction at 0.03 % strength", "setting": "[5]", "value": 0.2},
      {"measurement": "log reduction at 0.04 % strength", "setting": "[5]", "value": 2.4},
      {"measurement": "log reduction at 0.045 % strength", "setting": "[5]; Dose 0.045 % w/v", "value": 3.6},
      {"measurement": "log reduction at 0.05 % strength", "setting": "[5]", "value": 4.9}
    ]},
    {"smiles": "CC(C)=CCC/C(C)=C\\CO", "note": "[Nerol, (Z)-3,7-dimethyl-2,6-octadien-1-ol]", "values": [
      {"measurement": "log reduction at 0.08 % strength", "setting": "[1]; dose 0.08% w/v", "value": -0.1},
      {"measurement": "log reduction at 0.1 % strength", "setting": "[1]", "value": 0.5},
      {"measurement": "log reduction at 0.12 % strength", "setting": "[1]; dose 0.12% w/v", "value": 2.6},
      {"measurement": "log reduction at 0.14 % strength", "setting": "[1]; dose 0.14% w/v", "value": 4.9},
      {"measurement": "log reduction at 0.16 % strength", "setting": "[1]; dose 0.16% w/v", "value": 7.2},
      {"measurement": "log reduction at 0.05 % strength", "setting": "[2]; [6]", "value": 1.1},
      {"measurement": "log reduction at 0.05 % strength", "setting": "[2]; dose 0.05% w/v, contact 45 s, 20% EtOH", "value": 0.1},
      {"measurement": "log reduction at 0.06 % strength", "setting": "[2]; [7]", "value": 3.2},
      {"measurement": "log reduction at 0.06 % strength", "setting": "[2]; dose 0.06% w/v, contact 45 s, 20% EtOH", "value": 3.2},
      {"measurement": "log reduction at 0.07 % strength", "setting": "[2]; [8]", "value": 6.7},
      {"measurement": "log reduction at 0.07 % strength", "setting": "[2]; dose 0.07% w/v, contact 45 s, 20% EtOH", "value": 7},
      {"measurement": "log reduction at 0.08 % strength", "setting": "[2]; [9]", "value": 7.3},
      {"measurement": "log reduction at 0.08 % strength", "setting": "[2]; dose 0.08% w/v, contact 45 s, 20% EtOH", "value": 7.4},
      {"measurement": "log reduction at 0.09 % strength", "setting": "[2]; dose 0.090 % w/v, 45 s, in 20% EtOH", "value": 7.3},
      {"measurement": "log reduction at 0.09 % strength", "setting": "[2]; dose 0.09% w/v, contact 45 s, 20% EtOH", "value": 7.4},
      {"measurement": "log reduction at 0.0625 % strength", "setting": "[3]; dose 0.0625 % w/v", "value": 1.3},
      {"measurement": "log reduction at 0.075 % strength", "setting": "[3]; dose 0.075 % w/v", "value": 3.2},
      {"measurement": "log reduction at 0.1 % strength", "setting": "[3]", "value": 7},
      {"measurement": "log reduction at 0.125 % strength", "setting": "[3]", "value": 7.3},
      {"measurement": "log reduction at 0.15 % strength", "setting": "[3]; read-out: Log reduction", "value": 7.5},
      {"measurement": "log reduction at 0.025 % strength", "setting": "[4]; Dose 0.025 % w/v", "value": 0.4},
      {"measurement": "log reduction at 0.05 % strength", "setting": "[4]", "value": 3.6},
      {"measurement": "log reduction at 0.0625 % strength", "setting": "[4]; Dose 0.0625 % w/v", "value": 5.6},
      {"measurement": "log reduction at 0.075 % strength", "setting": "[4]; Dose 0.075 % w/v", "value": 7.4},
      {"measurement": "log reduction at 0.1 % strength", "setting": "[4]; Dose 0.1 % w/v", "value": 7.4},
      {"measurement": "log reduction at 0.01 % strength", "setting": "[5]; Dose 0.01 % w/v", "value": 0},
      {"measurement": "log reduction at 0.03 % strength", "setting": "[5]", "value": 0.7},
      {"measurement": "log reduction at 0.04 % strength", "setting": "[5]", "value": 2.2},
      {"measurement": "log reduction at 0.05 % strength", "setting": "[5]", "value": 5.6},
      {"measurement": "log reduction at 0.06 % strength", "setting": "[5]; Dose 0.06 % w/v", "value": 7.3}
    ]},
    {"smiles": "CC1=CCC(C(C)(C)O)CC1", "note": "(centres unmarked) [Terpineol Ord, 2-(4-Methylcyclohex-3-en-1-yl)propan-2-ol]", "values": [
      {"measurement": "log reduction at 0.25 % strength", "setting": "[1]; dose 0.25% w/v, read-out: Log reduction", "value": 2.9},
      {"measurement": "log reduction at 0.3 % strength", "setting": "[1]; dose 0.3% w/v, read-out: Log reduction", "value": 3.9},
      {"measurement": "log reduction at 0.35 % strength", "setting": "[1]; dose 0.35% w/v, read-out: Log reduction", "value": 6},
      {"measurement": "log reduction at 0.4 % strength", "setting": "[1]; dose 0.4% w/v, read-out: Log reduction", "value": 6.4},
      {"measurement": "log reduction at 0.1 % strength", "setting": "[2]; dose 0.100 % w/v, 45 s, in 20% EtOH, read-out: Log reduction", "value": 0.1},
      {"measurement": "log reduction at 0.11 % strength", "setting": "[2]; dose 0.110 % w/v, 45 s, in 20% EtOH", "value": 0.3},
      {"measurement": "log reduction at 0.125 % strength", "setting": "[2]; dose 0.125 % w/v, 45 s, in 20% EtOH", "value": 1.3},
      {"measurement": "log reduction at 0.15 % strength", "setting": "[2]; dose 0.150 % w/v, 45 s, in 20% EtOH", "value": 3.8},
      {"measurement": "log reduction at 0.2 % strength", "setting": "[2]; dose 0.200 % w/v, 45 s, in 20% EtOH", "value": 7.4},
      {"measurement": "log reduction at 0.125 % strength", "setting": "[3]", "value": 0.8},
      {"measurement": "log reduction at 0.15 % strength", "setting": "[3]; read-out: Log reduction", "value": 2.8},
      {"measurement": "log reduction at 0.175 % strength", "setting": "[3]; dose 0.175 % w/v, read-out: Log reduction", "value": 4.8},
      {"measurement": "log reduction at 0.2 % strength", "setting": "[3]; dose 0.200 % w/v, read-out: Log reduction", "value": 6.2},
      {"measurement": "log reduction at 0.25 % strength", "setting": "[3]; dose 0.250 % w/v, read-out: Log reduction", "value": 7.3},
      {"measurement": "log reduction at 0.125 % strength", "setting": "[4]; Dose 0.125 % w/v", "value": 4.4},
      {"measurement": "log reduction at 0.135 % strength", "setting": "[4]; Dose 0.135 % w/v", "value": 4.3},
      {"measurement": "log reduction at 0.15 % strength", "setting": "[4]; Dose 0.15 % w/v", "value": 6.6},
      {"measurement": "log reduction at 0.2 % strength", "setting": "[4]; Dose 0.2 % w/v, read-out: Log reduction", "value": 7.6},
      {"measurement": "log reduction at 0.1 % strength", "setting": "[5]; Dose 0.1 % w/v", "value": 0.8},
      {"measurement": "log reduction at 0.1 % strength", "setting": "[5]; Dose 0.10 % w/v", "value": 5.4},
      {"measurement": "log reduction at 0.1375 % strength", "setting": "[5]; Dose 0.1375 % w/v", "value": 7.7},
      {"measurement": "log reduction at 0.15 % strength", "setting": "[5]; Dose 0.15 % w/v", "value": 7.7}
    ]}
  ]
}
